Assays:
[1] = tested on: glycerol-induced renal insufficiency in male Sprague-Dawley rats; assay: Protective activity against glycerol-induced renal insufficiency; assay type: in vivo; settings: for Urea (plasma): glycerol-injected rats, 24 h after injection; for effect on the elevated plasma urea and creatinine concentrations: glycerol-induced acute renal insufficiency, oral or intraperitoneal, result in words
[2] = tested on: ochratoxin A-induced renal toxic lesions in Wistar rats; assay: Protective activity against renal abnormalities induced by ochratoxin A; assay type: in vivo; settings: for ALP (alkaline phosphatase) / GGT (gamma-glutamyl transferase) / NAG (N-acetyl-β-D-glucosaminidase): 24-hour urine, 300 mg/kg (of each drug) oral for 10 days with ochratoxin A; for effect on enzymuria induced by ochratoxin and serum creatinine levels: ochratoxin-intoxicated rats, result in words
From the text: In experimental animals, particularly rats, it is possible to reproduce tubulo-interstitial nephropathy similar to that encountered in man and known as Balkans Endemic Nephropathy (BEN) by means of the administration of a mycotoxin produced by Aspergillus ochraceus which is present as a contaminant in various foodstuffs and is known as ochratoxin A (Kniper-Goodman T., Scott P., Biomed. Environ. Sci., 2, 179, 1989).
The administration of small amounts of this toxin causes a series of renal abnormalities in the rat with a reduction in glomerular filtration and lesions at the level of the proximal tubule to such an extent as to cause renal atrophy.
In this test a batch of Wistar rats with a mean body weight of 200 g was divided into various groups, one of which served as a control group, while another was administered […] of ochratoxin (Sigma Chemical, St. Louis, Mo. U.S.A.) by gastric probe every 48 hours for a period of ten days. The remaining groups, in addition to ochratoxin, also received oral administrations of 300 mg/ks of acetyl L-carnitine or 300 mg/kg of propionyl L-carnitine or a combination of the two carnitines for the entire 10-day treatment period.
At the end of treatment, the animals were placed in metabolic cages and 24-hour urine was submitted to spectrophotometric evaluation of the enzymes alkaline phosphatase (ALP), gamma-glutamyl transferase (GGT) and N-acetyl-β-D-glucosaminidase (NAG) as indicators of renal damage.
Serum creatinine concentrations were also measured.

[3] = tested on: isolated perfused kidney; assay: Protective activity against lithium-induced nephrotoxicity in the isolated perfused kidney (histamine release); parameters: species or system Wistar rats; settings: for Percentage changes vs controls in histamine released: lithium 6 mEq/L after 20 min perfusion of carnitine 200 mM/L; for effect on histamine release induced by the renal toxic action of lithium: isolated perfused kidney, result in words
From the text: This test was used to assess the protective activity of the combination of acetyl L-carnitine plus propionyl L-carnitine against the well-known nephrotoxic activity of lithium. Lithium presents a particular tropism at the renal tubule level and can cause tubular necrosis.
In this test Wistar rates with a mean body weight of 400 g were anaesthetised and nephrectomised. The excised kidneys were perfused according to the technique described by Shureck (Shureck H. J., Pflügers Arch., 354, 1975) as modified by Maach (Maach T., Kidney Int., 30, 142, 1986; Maach T., Ann. J. Physiol., 238, 1980).
Immediately after isolation of the kidney, the renal artery and outflow vein were catheterised and the resulting preparation was placed in a chamber containing a Krebs solution heated to 37° C. The oxygenised Krebs solution was pumped into the system by means of a pulsatile pump at a rate of 0.8 ml/min/g.
Lithium was administered via the perfusion pump at a dose of 6 mEq/L after perfusion during the previous 20 minutes of a solution containing acetyl L-carnitine or propionyl L-carnitine (200 mM/L) or a combination of the two compounds.
After the lithium infusion, the venous perfusion fluid was collected at five-minute intervals for fifteen minutes and its histamine content was measured with a fluorometric method (Hakanson R., Anal. Biochem., 47, 356, 1972). Histamine release is considered a marker of the severity of tubular damage (Bertelli A., Drugs Exptl. Clin Res., 7, 53, 1981).

[4] = 5 minutes post-lithium-infusion
[5] = 10 minutes post-lithium-infusion
[6] = 15 minutes post-lithium-infusion

SMILES	Urea (plasma) ([1]; 100 mg/kg (of each drug) i.p.)	Urea (plasma) ([1]; 100 mg/kg (of each drug) oral)	Urea (plasma) ([1]; 500 mg/kg (of each drug) i.p.)	Urea (plasma) ([1]; 500 mg/kg (of each drug) oral)	effect on the elevated plasma urea and creatinine concentrations [1]	ALP (alkaline phosphatase) [2]	GGT (gamma-glutamyl transferase) [2]	NAG (N-acetyl-β-D-glucosaminidase) [2]	effect on enzymuria induced by ochratoxin and serum creatinine levels [2]	Percentage changes vs controls in histamine released [3, 4]	Percentage changes vs controls in histamine released [3, 5]	Percentage changes vs controls in histamine released [3, 6]	effect on histamine release induced by the renal toxic action of lithium [3]
CC(=O)O[C@H](CC(=O)[O-])C[N+](C)(C)C [ACL, Acetyl L-carnitine]	104.7 ± 12.4 mg/100 ml	110.9 ± 21.6 mg/100 ml	98.5 ± 10.6 mg/100 ml	105.4 ± 29.4 mg/100 ml	only slight changes	8.8 ± 1.1 U/I	17.2 ± 1.9 U/I	48.8 ± 5.1 U/I	reduced	55.8 ± 6.1%	36.8 ± 3.1%	12.5 ± 1.5%	reduced
CCC(=O)O[C@H](CC(=O)[O-])C[N+](C)(C)C [PC, Propionyl L-carnitine]	100.5 ± 9.8 mg/100 ml	107.4 ± 30.2 mg/100 ml	80.2 ± 6.6 mg/100 ml	90.2 ± 31.4 mg/100 ml	only slight changes	7.5 ± 0.9 U/I	16.5 ± 2.2 U/I	44.2 ± 4.5 U/I	reduced	45.8 ± 4.5%	30.4 ± 2.9%	10.4 ± 0.9%	reduced

— US7585896B2, “Composition for the prevention and treatment of kidney dysfunctions and diseases” (Sigma-Tau Industrie Farmaceutiche Riunite S.p.A., priority 1999, dated 2009)
